{"source": "paper PMC2560999", "about": "“A-Type GABA Receptor as a Central Target of TRPM8 Agonist Menthol” (PLoS ONE, 2008)", "tested_on": "T1, GABAA receptor (GABAAR), native, cultured rat hippocampal neurons", "T1 construct": "gene Gabra1; native receptors of unresolved subunit composition in primary cultured hippocampal neurons (12-16 DIV for firing recordings)", "experiment": "whole-cell patch clamp, peak current", "format": "cell-based", "conditions": "direct activation without GABA; holding potential −50 mV; pH 7.3"}
{"compound": "CC(C)[C@@H]1CC[C@@H](C)C[C@H]1O", "note": "[menthol]", "values": [{"measurement": "EC50", "value": 490, "unit": "µM"}]}
